# Data as given in patent US7678395B2, “Stimulation of hair growth by isoginkgetin” (Osteoscreen, Inc., priority 2003, dated 2010).
# Where a SMILES comes first, the peptide text is derived from it. The star is where a group is joined. Cbz = O=C(OCc1ccccc1)*; OtBu = CC(C)(C)O*
# Columns and labels:
# [1] = biological target: T1, 20S proteasome (Mus musculus, UniProt O55234); assay: Proteasome inhibition assay, compounds added directly to 20S proteasome preparation (LLVY-AMC cleavage); type: biochemical; conditions: 20S proteasome preparations from packed whole blood of mice, FIG. 2A
# T1 construct: 20S proteasome preparations from packed whole blood of mice; from tissue; host or cells: packed whole blood of mice (EDTA lysate supernatant)
# Protocol: If packed whole blood is used as a source for proteasomes, 1 ml blood collected in heparinized microtainer tubes is diluted 1:1 (v/v) with saline and centrifuged at 500×g (Sorvall RT 6000D, rotor H-1000B at 1500 rpm) for 5 min at room temperature. The supernatant is removed and the PWB pellet resuspended in 1 ml PBS and microcentrifuged at 6600×g (Eppendorf 5415C at 7000 rpm) for 10 min at room temperature. The supernatant is removed and the PWB pellet is then frozen at −70° C. prior to proteasome analysis.
# To prepare the proteasomes, WBC or RBC or PWB 1:1 (v/v) are lysed using 5 mM EDTA, pH 8.0 for 30 min and centrifuged at 15,000×g (Eppendorf 5415C at 14,000 rpm) for 10 min at room temperature. The supernatant containing proteasomes is placed on ice and the protein concentration is determined. […]
# (§1) For the assay, 50 μl sample—i.e., 20 proteasome; or standard; or ˜50 μg/μl WBC; or ˜500 μg/μl RBC or ˜1000 μg/μl PWB samples some containing test compounds is added to 50 μl substrate buffer (20 mM HEPES, 0.5 mM EDTA, 0.05% SDS, and 120 μM LLVY-AMC; pH 8.0) in a 96-well black fluorescence plate. The reaction is measured with a fluorescence spectrophotometer (excitation max.: 380 nm; emission max.: 440 nm, and velocity of reaction determined. As shown, the substrate is Leu-Leu-Val-Tyr-AMC. AMC is amido-4-methylcoumarin. […]
# [2] = biological target: T2, proteasomes of red blood cells (Mus musculus, UniProt O55234); assay: Proteasome inhibition assay, red blood cells treated with compounds, then proteasomes isolated and protease activity assessed; type: cell-based; conditions: red blood cells treated first, then proteasomes isolated; OSA compared with isoginkgetin; FIG. 2B
# T2 construct: endogenous in cells; host or cells: red blood cells
# Protocol: If RBC are used, the RBC pellet obtained in the process of obtaining WBC described above is recovered and washed with 3 ml PBS, then centrifuged at 500×g (Sorvall RT 6000D, rotor H-1000B at 1500 rpm) for 5 min at room temperature. The supernatant is removed and the RBC pellet resuspended in 1 ml PBS and microcentrifuged at 6600×g (Eppendorf 5415C at 7000 rpm) for 10 min at room temperature. The supernatant is again removed and the RBC pellet is then frozen at −70° C. prior to proteasome analysis.
# To prepare the proteasomes, WBC or RBC or PWB 1:1 (v/v) are lysed using 5 mM EDTA, pH 8.0 for 30 min and centrifuged at 15,000×g (Eppendorf 5415C at 14,000 rpm) for 10 min at room temperature. The supernatant containing proteasomes is placed on ice and the protein concentration is determined.
# as §1
# [3] = test system: C57 male black mice; assay: Stimulation of hair growth on shaved dorsal trunk, topical application; type: in vivo; conditions: 5 days, 1% OSA (100 μl) or 10% isoginkgetin (50 μl), after 17 days and 26 days, FIGS. 3A and 3B
# Protocol: C57 male black mice, 8 weeks old, were acclimated for 7 days in individual cages and fed standard diets and water ad libitum. The mice were anesthetized prior to manipulation. The dorsal trunk of each mouse was shaved and then treated topically starting the following day with a 1.0% solution of OSA (100 μl) which was applied for each of 5 days. A similar protocol was followed using 50 μl solution of isoginkgetin at percentages of 1, 5 and 10% wt/wt. The progression of hair growth is monitored visually and photographed.
# FIGS. 3A and 3B show the results for 1% OSA or 10% isoginkgetin after 17 days and 26 days respectively.
smiles,measurement,setting,value
CC[C@H](C)[C@H](NC(=O)OCc1ccccc1)C(=O)N[C@@H](CCC(=O)OC(C)(C)C)C(=O)N[C@@H](C)C(=O)N[C@H](C=O)CC(C)C [OSA] (Cbz-IE(OtBu)AL-aldehyde),inhibition of the Vmax of the proteolytic cleavage of the LLVY-AMC substrate,[1],similarly inhibit the Vmax
same,proteasome inhibition when red blood cells are treated with the compounds,[2],more effective
same,growth of hair in the dorsal area as compared to control,[3],stimulate the growth of hair
